Test results as given in US7626030B2, “Compounds and methods of use” (Amgen Inc., priority 2004, dated 2009).

system: Human Umbilical Vein Endothelial cells; experiment: HUVEC proliferation assay (VEGF-stimulated); format: cell-based; settings: read-out: inhibition of VEGF-stimulated HUVEC proliferation, level
Experimental: HUVEC Proliferation Assay
Human Umbilical Vein Endothelial cells are purchased from Clonetics, Inc., as cryopreserved cells harvested from a pool of donors. These cells, at passage 1, are thawed and expanded in EBM-2 complete medium, until passage 2 or 3. The cells are trypsinized, washed in DMEM+10% FBS+antibiotics, and spun at 1000 rpm for 10 min. Prior to centrifugation of the cells, a small amount is collected for a cell count. After centrifugation, the medium is discarded, and the cells are resuspended in the appropriate volume of DMEM+10% FBS+antibiotics to achieve a concentration of 3×10^5 cells/mL. Another cell count is performed to confirm the cell concentration. The cells are diluted to 3×10^4 cells/mL in DMEM+10% FBS+antibiotics, and 100 μL of cells are added to a 96-well plate. The cells are incubated at 37° C. for 22 h.
Prior to the completion of the incubation period, compound dilutions are prepared. Five-point, five-fold serial dilutions are prepared in DMSO, at concentrations 400-fold greater than the final concentrations desired. 2.5 μL of each compound dilution are diluted further in a total of 1 mL DMEM+10% FBS+antibiotics (400× dilution). Medium containing 0.25% DMSO is also prepared for the […]. At the 22 h timepoint, the medium is removed from the cells, and 100 μL of each compound dilution is added. The cells are incubated at 37° C. for 2-3 h.
During the compound pre-incubation period, the growth factors are diluted to the appropriate concentrations. Solutions of DMEM+10% FBS+antibiotics, containing either VEGF or bFGF at the following concentrations: 50, 10, 2, 0.4, 0.08, and 0 ng/mL are prepared. For the compound-treated cells, solutions of VEGF at 550 ng/mL or bFGF at 220 ng/mL for 50 ng/mL or 20 ng/mL final concentrations, respectively, are prepared since 10 μL of each will be added to the cells (110 μL final volume). At the appropriate time after adding the compounds, the growth factors are added. VEGF is added to one set of plates, while bFGF is added to another set of plates. For the growth factor control curves, the media on wells B4-G6 of plates 1 and 2 are replaced with media containing VEGF or bFGF at the varying concentrations (50-0 ng/mL). The cells are incubated at 37° C. for an additional 72 h.
At the completion of the 72 h incubation period, the medium is removed, and the cells are washed twice with PBS. After the second wash with PBS, the plates are tapped gently to remove excess PBS, and the cells are placed at −70° C. for at least 30 min. The cells are thawed and analyzed using the CyQuant fluorescent dye (Molecular Probes C-7026), following the manufacturer's recommendations. The plates are read on a Victor/Wallac 1420 workstation at 485 nm/530 nm (excitation/emission). Raw data are collected and analyzed using a 4-parameter fit equation in XLFit. IC50 values are then determined.

| Compound | IC50 |
| --- | --- |
| COc1ccc(C(=O)Nc2nn(C)c3cc(Oc4ccnc5cc(OC)c(OC)cc45)ccc23)cc1 [Example 132, N-(6-((6,7-bis(methyloxy)-4-quinolinyl)oxy)-1-methyl-1H-indazol-3-yl)-4-(methyloxy)benzamide] | < 500 nM |
| COc1cc2nccc(Oc3ccc4c(NC(=O)c5ccc(Cl)cc5)nn(C)c4c3)c2cc1OC [Example 134, N-(6-((6,7-bis(methoxy)-4-quinolinyl)oxy)-1-methyl-1H-indazol-3-yl)-4-chlorobenzamide] | < 500 nM |
| COc1cc2nccc(Oc3ccc4c(NC(=O)c5ccc(C(F)(F)F)cc5)nn(C)c4c3)c2cc1OC [Example 135, N-(6-((6,7-bis(methoxy)-4-quinolinyl)oxy)-1-methyl-1H-indazol-3-yl)-4-(trifluoromethyl)benzamide] | < 500 nM |
| COc1cc2nccc(Oc3ccc4c(NC(=O)c5ccc(F)c(Cl)c5)nn(C)c4c3)c2cc1OC [Example 137, N-(6-((6,7-bis(methoxy)-4-quinolinyl)oxy)-1-methyl-1H-indazol-3-yl)-3-chloro-4-fluorobenzamide] | < 500 nM |
| COc1cc2nccc(Oc3ccc4c(NC(=O)c5cc(C(F)(F)F)cc(C(F)(F)F)c5)nn(C)c4c3)c2cc1OC [Example 138, N-(6-((6,7-bis(methoxy)-4-quinolinyl)oxy)-1-methyl-1H-indazol-3-yl)-3,5-bis(trifluoromethyl)benzamide] | < 500 nM |
| COc1cc2nccc(Oc3ccc4c(NC(=O)c5cccc(C)c5)nn(C)c4c3)c2cc1OC [Example 139, N-(6-((6,7-bis(methoxy)-4-quinolinyl)oxy)-1-methyl-1H-indazol-3-yl)-3-methylbenzamide] | < 500 nM |
| COc1cc2nccc(Oc3ccc4c(NC(=O)c5cc(Cl)ccn5)nn(C)c4c3)c2cc1OC [Example 140, N-(6-((6,7-bis(methoxy)-4-quinolinyl)oxy)-1-methyl-1H-indazol-3-yl)-4-chloro-2-pyridinecarboxamide] | < 500 nM |
| COc1cc2nccc(Oc3ccc4c(NC(=O)Nc5ccc(C)cc5)nn(C)c4c3)c2cc1OC [Example 142, N-(6-((6,7-bis(methoxy)quinolinyl)oxy)-1-methyl-1H-indazol-3-yl)-N′-(4-methylphenyl)urea] | < 500 nM |
| COc1cc2nccc(Oc3ccc4c(NC(=O)Nc5ccccc5)nn(C)c4c3)c2cc1OC [Example 144, N-(6-((6,7-bis(methoxy)-4-quinolinyl)oxy)-1-methyl-1H-indazol-3-yl)-N′-phenylurea] | < 500 nM |
| COc1ccc(NC(=O)Nc2nn(C)c3cc(Oc4ccnc5cc(OC)c(OC)cc45)ccc23)cc1 [Example 145, N-(6-((6,7-bis(methoxy)-4-quinolinyl)oxy)-1-methyl-1H-indazol-3-yl)-N′-(4-(methyloxy)phenyl)urea] | < 500 nM |

biological target: T1, c-Met in PC3 cells (Homo sapiens, UniProt P08581); experiment: c-Met cell-based autophosphorylation assay, PC3 cells; settings: HGF-stimulated
T1 construct: host or cells: PC3 cells
T1 sequence (P08581 25-1390): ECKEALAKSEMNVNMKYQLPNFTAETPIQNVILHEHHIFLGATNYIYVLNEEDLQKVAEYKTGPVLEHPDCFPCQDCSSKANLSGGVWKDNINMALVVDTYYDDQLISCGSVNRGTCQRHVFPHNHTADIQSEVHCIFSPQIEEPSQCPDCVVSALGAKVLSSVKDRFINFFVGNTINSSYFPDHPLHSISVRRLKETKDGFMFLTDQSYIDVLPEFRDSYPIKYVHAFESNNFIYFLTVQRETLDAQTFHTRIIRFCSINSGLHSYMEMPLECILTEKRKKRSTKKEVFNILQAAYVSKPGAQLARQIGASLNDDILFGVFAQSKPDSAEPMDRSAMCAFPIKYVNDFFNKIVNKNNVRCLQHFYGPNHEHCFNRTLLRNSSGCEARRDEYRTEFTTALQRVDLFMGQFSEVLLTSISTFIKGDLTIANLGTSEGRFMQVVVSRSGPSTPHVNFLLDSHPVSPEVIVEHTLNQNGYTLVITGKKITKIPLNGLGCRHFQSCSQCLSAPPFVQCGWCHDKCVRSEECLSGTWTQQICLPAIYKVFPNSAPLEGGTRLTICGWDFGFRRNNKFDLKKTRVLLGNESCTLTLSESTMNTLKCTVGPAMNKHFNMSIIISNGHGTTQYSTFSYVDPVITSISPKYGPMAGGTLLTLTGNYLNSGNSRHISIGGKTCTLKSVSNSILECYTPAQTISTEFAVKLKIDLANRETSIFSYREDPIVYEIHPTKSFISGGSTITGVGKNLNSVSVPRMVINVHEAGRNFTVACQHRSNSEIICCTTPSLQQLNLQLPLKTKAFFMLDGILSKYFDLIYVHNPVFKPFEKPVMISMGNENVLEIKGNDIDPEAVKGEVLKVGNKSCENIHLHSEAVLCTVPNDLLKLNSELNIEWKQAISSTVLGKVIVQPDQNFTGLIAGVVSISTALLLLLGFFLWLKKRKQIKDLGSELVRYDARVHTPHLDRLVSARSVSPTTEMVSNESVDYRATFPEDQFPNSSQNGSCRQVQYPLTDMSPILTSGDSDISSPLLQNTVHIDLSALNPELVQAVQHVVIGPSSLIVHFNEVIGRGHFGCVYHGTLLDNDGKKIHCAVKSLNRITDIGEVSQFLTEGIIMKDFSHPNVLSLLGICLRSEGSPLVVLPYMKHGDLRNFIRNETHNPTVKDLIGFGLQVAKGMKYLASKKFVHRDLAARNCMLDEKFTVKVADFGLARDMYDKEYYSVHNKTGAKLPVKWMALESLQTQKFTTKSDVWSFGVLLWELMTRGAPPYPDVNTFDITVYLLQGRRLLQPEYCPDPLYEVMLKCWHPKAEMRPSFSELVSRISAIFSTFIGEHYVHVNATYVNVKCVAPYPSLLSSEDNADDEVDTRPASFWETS
Experimental: c-Met Cell-Based Autophosphorylation Assay
Human PC3 and mouse CT26 cells are available obtained from ATCC. The cells were cultured in a growth medium containing RPMI 1640, penicillin/streptomycin/glutamine (1×) and 5% FBS. 2×10^4 cells in medium were plated per well in a 96 well plate and incubated at 37° C. overnight. The cells were serum-starved by replacing the growth media with basic medium (DMEM low glucose+0.1 BSA, 120 μL per well) at 37° C. for 16 h. Compounds (either 1 mM and 0.2 mM) in 100% DMSO were serially diluted (1:3) 3333 fold on a 96 well plate, diluting 1:3 with DMSO from column 1 to 11 (columns 6 and 12 receive no compound). Compound samples (2.4 μL per well) were diluted with basic medium (240 μL) in a 96 well plate. The cells were washed once with basic medium (GIBCO, DMEM 11885-076) then compound solution was added (100 μL). The cells were incubated at 37° C. for 1 h. A (2 mg/mL) solution of CHO-HGF (7.5 μL) was diluted with 30 mL basic medium to provide a final concentration of 500 ng/mL. This HGF-containing media (120 μL) was transferred to a 96 well plate. Compounds (1.2 μL) was added to the HGF-containing media and mixed well. The mixture of media/HGF/compound (100 μL) was added to the cells (final HGF concentration—250 ng/mL) then incubated at 37° C. for 10 min. A cell lysate buffer (20 mL) was prepared containing 1% Triton X-100, 50 mM Tris pH 8.0, 100 mM NaCl, Protease inhibitor (Sigma, #P-8340) 200 μL, Roche Protease inhibitor (Complete, # 1-697-498) 2 tablets, Phosphatase Inhibitor II (Sigma, #P-5726) 200 μL, and a sodium vanadate solution (containing 900 μL PBS, 100 μL 300 mM NaVO3, 6 μl H2O2 (30% stock) and stirred at RT for 15 min) (90 μL). The cells were washed once with ice cold 1×PBS (GIBCO, #14190-136), then lysis buffer (60 μL) was added and the cells were incubated on ice for 20 min.
The IGEN assay was performed as follows: Dynabeads M-280 streptavidin beads were pre-incubated with biotinylated anti-human HGFR (240 μL anti-human-HGFR (R&D system, BAF527 or BAF328) @ 100 μg/mL+360 μL Beads (IGEN #10029+5.4 μL buffer−PBS/1% BSA/0.1% Tween20) by rotating for 30 min at RT. Antibody beads (25 μL) were transferred to a 96 well plate. Cell lysate solution (25 μL) was transferred added and the plate was shaken at RT for 1 h. Anti-phosphotyrosine 4G10 (Upstate 05-321) (19.7 μL antibody+6 mL 1×PBS) (12.5 μL) was added to each well, then incubated for 1 h at RT. Anti-mouse IgG ORI-Tag (ORIGEN #110087) (24 μL Antibody+6 mL buffer) (12.5 μL) was added to each well, then incubated at RT for 30 min. 1×PBS (175 μL) was added to each well and the electrochemiluminescence was read by an IGEN M8. Raw data was analyzed using a 4-parameter fit equation in XLFit. IC50 values are then determined using Grafit software.

| Compound | IC50 |
| --- | --- |
| COc1cc2nccc(Oc3ccc4nc(NC(=O)c5ccsc5)sc4c3)c2cc1OC [Example 46, Thiophene-3-carboxylic acid [6-(6,7-dimethoxy-quinolin-4-yloxy)-benzothiazol-2-yl]-amide] | < 1000 nM |
| Cc1cc(Oc2ccc3nc(NC(=O)Cc4ccccc4)sc3c2)ccn1 [Example 82, N-[6-(2-Methyl-pyridin-4-yloxy)-benzothiazol-2-yl]-2-phenyl-acetamide] | < 1000 nM |
| COc1cc2nccc(Oc3ccc4oc(Nc5ccc(Cl)cc5)nc4c3)c2cc1OC [Example 96, 5-((6,7-bis(methoxy)-4-quinolinyl)oxy)-N-(4-chlorophenyl)-1,3-benzoxazol-2-amine] | < 1000 nM |
| COc1cc2c(Oc3ccc4nc(NC(=O)c5ccccc5)sc4c3)ccnc2cc1OCCCN(C)C [Example 102, N-(6-((7-((3-(dimethylamino)propyl)oxy)-6-(methoxy)-4-quinolinyl)oxy)-1,3-benzothiazol-2-yl)benzamide] | < 1000 nM |
| COc1cc2c(Oc3ccc4nc(NC(=O)c5ccsc5)sc4c3)ccnc2cc1OCCCN1CCOCC1 [Example 104, N-(6-((6-(methoxy)-7-((3-(4-morpholinyl)propyl)oxy)-4-quinolinyl)oxy)-1,3-benzothiazol-2-yl)-1-3-thiohenecarboxamide] | < 1000 nM |
